Results on 52 molecules are retold here after ChEMBL document CHEMBL5055661, “Cell-Based Drug Discovery: Identification and Optimization of Small Molecules that Reduce c-MYC Protein Levels in Cells” (J Med Chem, 2021).

≈ marks a conversion by molar mass, not a printed value.

One series in a line: Permeability of the compound across artificial membrane by AMP assay. It counts as ADME. Conditions: PAMPA; read-out: permeability. In general terms: The PAMPA barrier holds no transporters, so it reflects passive diffusion.
Turning to `CCNC(=O)c1cc(OC)c2c(c1)nc(-c1ccc(N3[C@@H](C)CC[C@@H]3C)nc1)n2C[C@@H]1CNCCO1`, the Papp was determined as 1.9 ×10⁻⁶ cm/s. `CCOCCn1c(-c2ccc(N3[C@@H](C)CC[C@@H]3C)nc2)nc2ccccc21`: the Papp came out at 54.5 ×10⁻⁶ cm/s. As for `Cc1cccc2nc(-c3ccc(N4[C@@H](C)CC[C@@H]4C)nc3)n(Cc3ccn(C)n3)c12`, the Papp was 64 ×10⁻⁶ cm/s. On to `CNC(=O)c1cc(OC)c2c(c1)nc(-c1ccc(N3[C@@H](C)CC[C@@H]3C)nc1)n2C[C@@H]1CN(C)CCO1`, for which the Papp was determined as 22 ×10⁻⁶ cm/s. Take `CNC(=O)c1cc(OC)c2c(c1)nc(-c1ccc(N3[C@@H](C)CC[C@@H]3C)nc1)n2C[C@@H]1CNCCO1`: the Papp amounted to 1.3 ×10⁻⁶ cm/s.

Another series in a line: Reduction in cMyc expression in human COLO 320HSR cells incubated for 24 hrs by HTRF assay. The series is classed as functional, cell-based.
Details: not given
Background: TR-FRET usually uses a lanthanide donor and a delayed reading to cut background.
Take `COc1cc(C(N)=O)cc2nc(-c3ccc(N4[C@@H](C)CC[C@@H]4C)nc3)n(C[C@@H]3CN(C)CCO3)c12`: the EC50 (in general, the midpoint of the concentration-response curve) is 79.4 nM. `CCN(CC)c1ccc(-c2nc3cccc(C)c3n2Cc2ccn(C)n2)cn1` had an EC50 of 1000 nM.

Take `CCOCCn1c(-c2ccc(N3CCC[C@H]3C)nc2)nc2ccccc21`: the EC50 was 12600 nM. In the case of `CCN(CC)c1ccc(-c2nc3c(C(N)=O)cccc3n2Cc2ccn(CC)n2)cn1`, the EC50 is 2000 nM. For the molecule `CCN(CC)c1ccc(-c2nc3c(C)cccc3n2Cc2ccn(CC)n2)cn1`, it took 316 nM to reach a half-maximal effect (EC50). The same measure, in the same setting: the value for `CCOCCn1c(-c2ccc(N3[C@@H](C)CC[C@@H]3C)nc2)nc2ccccc21` was 251 nM; that for `C[C@@H]1CN(C)C[C@H](Cn2c(-c3ccc(N4[C@@H](C)CC[C@@H]4C)nc3)nc3ccccc32)O1` was 20000 nM.

In the case of `CCN(CC)c1ccc(-c2nc3cc(C)ccc3n2Cc2ccn(CC)n2)cn1`, the EC50 is 631 nM. As for `CCN(CC)c1ccc(-c2nc3cc(C(=O)N(C)C)ccc3n2CCOC(C)(C)C)cn1`, the EC50 was 3980 nM. Take `CCOCCn1c(-c2ccc(N3[C@@H](C)CC[C@@H]3C)nc2)nc2cccc(OC)c21`: the EC50 was 25.1 nM. As to `CCOCCn1c(-c2ccc(N(CC)CC)nc2)nc2ccccc21`, the EC50 was 398 nM. Still for that read-out and setting: next, `Cc1cccc2nc(-c3ccc(N4[C@@H](C)CC[C@@H]4C)nc3)n(Cc3ccn(C)n3)c12`: 100 nM; `CCN(CC)c1ccc(-c2nc3c(Cl)cccc3n2Cc2ccn(CC)n2)cn1`: 200 nM. Molecule `CCN(CC)c1ccc(-c2nc3cccc(NC)c3n2Cc2ccn(C)n2)cn1` gave an EC50 of 631 nM. On the same count and under the same terms, next, `CCN(CC)c1ccc(-c2nc3ccccc3n2CCc2ccn(CC)n2)cn1`: 25100 nM; `CCc1nc(Cn2c(-c3ccc(N(CC)CC)nc3)nc3ccccc32)co1`: 501 nM. Molecule `CCN(CC)c1ccc(-c2nc3cc(C(=O)NCC4CC4)ccc3n2CCOC(C)(C)C)cn1` had an EC50 of 158 nM. The molecule `COc1cccc2nc(-c3ccc(N4[C@@H](C)CC[C@@H]4C)nc3)n(C[C@@H]3CN(C)C[C@H](C)O3)c12` showed an EC50 of 79.4 nM. `CCn1ccc(Cn2c(-c3ccc(N4CCCC4)nc3)nc3ccccc32)n1` showed an EC50 of 5010 nM. On to `CCN(CC)c1ccc(-c2nc3cc(C(N)=O)ccc3n2CCOC(C)(C)C)cn1`, for which the EC50 is 158 nM. `CCNc1ccc(-c2nc3ccccc3n2Cc2ccn(CC)n2)cn1` had an EC50 of 39800 nM.

`CCc1ncc(Cn2c(-c3ccc(N(CC)CC)nc3)nc3ccccc32)o1`: a half-maximal response (EC50) required 3160 nM. Same read-out and setting: next, `CCN(C)c1ccc(-c2nc3ccccc3n2Cc2ccn(CC)n2)cn1`: 3980 nM; `COc1cccc2nc(-c3ccc(N4[C@@H](C)CC[C@@H]4C)nc3)n(C[C@@H]3CNC[C@H](C)O3)c12`: 158 nM; `CCN(CC)c1ccc(-c2nc3ccccc3n2Cc2coc(C)n2)cn1`: 501 nM.

Take `CCN(CC)c1ccc(-c2nc3ccccc3n2Cc2cc[nH]n2)cn1`: it took 2510 nM to reach a half-maximal effect (EC50). `CCn1ccc(Cn2c(-c3ccc(N4CCCC4C)nc3)nc3ccccc32)n1` (configuration not stated): the concentration giving a half-maximal response (EC50) is 1580 nM. On the same count and under the same terms, the value for `CCCN(CC)c1ccc(-c2nc3ccccc3n2Cc2ccn(CC)n2)cn1` was 1580 nM; that for `CCN(CC)c1ccc(-c2cc3ccccc3n2Cc2ccn(CC)n2)cn1` was 7940 nM; that for `CCN(CC)c1ccc(-c2nc3ccccc3n2CCOC(C)C)cn1` was 251 nM. Still for that read-out and setting: next, `CCOc1cccc2nc(-c3ccc(N(CC)CC)nc3)n(Cc3ccn(C)n3)c12`: 398 nM; `CCOCCn1c(-c2ccc(N3CCC[C@@H]3C)nc2)nc2ccccc21`: 1260 nM; `CCOCCn1c(-c2ccc(N3[C@H](C)CC[C@@H]3C)nc2)nc2ccccc21`: 2000 nM. Regarding `CCN(CC)c1ccc(-c2nc3ccccc3n2Cc2ccn(CC)n2)cc1`, the response was half-maximal at 25100 nM (EC50). In turn, `CCN(CC)c1ccc(-c2nc3cc(C(=O)NCCO)ccc3n2CCOC(C)(C)C)cn1` gave an EC50 of 200 nM.

For the molecule `C[C@H]1CN(C)C[C@@H](Cn2c(-c3ccc(N4[C@@H](C)CC[C@@H]4C)nc3)nc3ccccc32)O1`, the EC50 is 1580 nM.

In turn, `CCN(CC)c1ccc(-c2nc3c(C#N)cccc3n2Cc2ccn(CC)n2)cn1` had an EC50 of 1000 nM. On the same count and under the same terms, the value for `CCN(CC)c1ccc(-c2nc3cccc(C#N)c3n2Cc2ccn(C)n2)cn1` was 2000 nM; that for `CCN(CC)c1ccc(-c2nc3ccccc3n2CCOC)cn1` was 2510 nM; that for `CCN(CC)c1ccc(-c2nc3ccccc3n2Cc2ccn(CC)n2)cn1` was 631 nM. Turning to `CCN(CC)c1ccc(-c2nc3cc(C#N)ccc3n2Cc2ccn(CC)n2)cn1`, the EC50 is 1000 nM.

As for `CCCCn1c(-c2ccc(N(CC)CC)nc2)nc2ccccc21`, the EC50 was 12600 nM.

For the molecule `COc1cc(C(N)=O)c(F)c2nc(-c3ccc(N4[C@@H](C)CC[C@@H]4C)nc3)n(C[C@@H]3CN(C)CCO3)c12`, the EC50 was 20 nM. In turn, `CCN(CC)c1ccc(-c2nc3ccccc3n2CCOC(C)(C)C)cn1` had an EC50 of 316 nM. Same read-out and setting: next, `CCN(CC)c1ccc(-c2nc3ccccc3n2Cc2ccn(C)n2)cn1`: 251 nM; `CCN(CC)c1ccc(-c2nc3cc(OC)ccc3n2Cc2ccn(CC)n2)cn1`: 794 nM; `CCc1nc(Cn2c(-c3ccc(N(CC)CC)nc3)nc3ccccc32)cs1`: 1580 nM.

`CCN(CC)c1ccc(-c2nc3ccccc3n2Cc2cccc(C)n2)cn1` showed an EC50 of 2510 nM. `CCN(CC)c1ccc(-c2nc3cccc(OC)c3n2Cc2ccn(C)n2)cn1` had an EC50 of 79.4 nM.

A short description of the next series: Distribution coefficient, logD of the compound by chromatography. The series is classed as physicochemical. Conditions: octanol/water.
For the molecule `CCOCCn1c(-c2ccc(N3[C@@H](C)CC[C@@H]3C)nc2)nc2ccccc21`, the chromatographic logD (in general, lipophilicity estimated from chromatographic retention) is 6.4.

Turning to `C[C@@H]1CN(C)C[C@H](Cn2c(-c3ccc(N4[C@@H](C)CC[C@@H]4C)nc3)nc3ccccc32)O1`, the chromatographic logD turned out to be 5.5. Still for that read-out and setting: next, `Cc1cccc2nc(-c3ccc(N4[C@@H](C)CC[C@@H]4C)nc3)n(Cc3ccn(C)n3)c12`: 7.

`COc1cccc2nc(-c3ccc(N4[C@@H](C)CC[C@@H]4C)nc3)n(C[C@@H]3CN(C)C[C@H](C)O3)c12` gave a chromatographic logD of 6.8. Take `COc1cccc2nc(-c3ccc(N4[C@@H](C)CC[C@@H]4C)nc3)n(C[C@@H]3CNC[C@H](C)O3)c12`: the chromatographic logD is 4.4. Still for that read-out and setting: the value for `C[C@H]1CN(C)C[C@@H](Cn2c(-c3ccc(N4[C@@H](C)CC[C@@H]4C)nc3)nc3ccccc32)O1` was 5.6.

The nature of the next series: Solubility by CLND assay. The series is classed as physicochemical.
Details: not given
As for `CCOCCn1c(-c2ccc(N3[C@@H](C)CC[C@@H]3C)nc2)nc2ccccc21`, the solubility (kinetic) (usually the concentration staying in solution when a stock, usually in DMSO, is diluted into the medium) came out at 254 µM (≈ 92.6 µg/mL). Same read-out and setting: next, `Cc1cccc2nc(-c3ccc(N4[C@@H](C)CC[C@@H]4C)nc3)n(Cc3ccn(C)n3)c12`: 309 µM (≈ 124 µg/mL).
